Results taken from patent US7109218B2, “Substituted 2-thio-3,5-dicyano-4-phenyl-6-aminopyridines and the use of the same” (Bayer HealthCare AG, priority 2001, dated 2006).
Where two headings read alike, the source gives them in different places.

Key:
[1] = Pharmacokinetic investigation, oral bioavailability in mice; format: in vivo; conditions: plasma, Mouse, read-out: Bioavailability following oral administration
Method: (§1) Pharmacokinetic data were determined after administering various substances i.v. or p.o. as solutions to mice, rats and dogs. For this, blood samples were collected up to 24 hours after administration. The concentrations of the unaltered substance were determined by bioanalytical methods (HPLC or HPLC-MS) in the plasma samples which were obtained from the blood samples. Pharmacokinetic parameters were subsequently ascertained from the plasma concentration time courses which had been obtained in this way. The following Table 2 gives the bioavailability in the different species.

[2] = biological target: T1, adenosine A2b receptor (Homo sapiens, UniProt P29275); experiment: Adenosine agonism indirectly by gene expression (luciferase, cAMP-dependent promoter) in transfected CHO cells, A2b; format: cell-based; conditions: read-out: Stimulation of adenosine A2b receptor (% of the maximum stimulation achieved by NECA)
T1 construct: expressed in transfected cells; host or cells: CHO (Chinese Hamster Ovary)
T1 sequence (P29275 1-332): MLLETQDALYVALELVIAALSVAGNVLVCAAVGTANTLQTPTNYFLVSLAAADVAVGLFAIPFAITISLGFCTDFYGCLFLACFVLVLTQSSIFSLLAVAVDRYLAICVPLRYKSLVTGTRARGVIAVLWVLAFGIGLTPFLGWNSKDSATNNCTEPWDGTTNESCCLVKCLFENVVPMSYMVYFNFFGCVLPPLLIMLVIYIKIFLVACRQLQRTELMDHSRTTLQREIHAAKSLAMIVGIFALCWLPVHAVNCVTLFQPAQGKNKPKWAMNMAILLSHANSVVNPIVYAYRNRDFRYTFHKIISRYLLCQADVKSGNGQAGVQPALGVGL
Text: (§2) Cells of the CHO (Chinese Hamster Ovary) permanent cell line are transfected stably with the cDNA for the adenosine receptor subtypes A1, A2a and A2b. The adenosine A1 receptors are coupled to the adenylate cyclase by way of Gi proteins, while the adenosine A2a and A2b receptors are coupled by way of Gs proteins. In correspondence with this, the formation of cAMP in the cell is inhibited or stimulated, respectively. After that, expression of the luciferase is modulated by way of a cAMP-dependent promoter. The luciferase test is optimized, with the aim of high sensitivity and reproducibility, low variance and good suitability for implementation on a robot system, by varying several test parameters, such as cell density, duration of the growth phase and the test incubation, forskolin concentration and medium composition. The following test protocol is used for pharmacologically characterizing cells and for the robot-assisted substance test screening.
(§3) The stock cultures are grown, at 37° C. and under 5% CO2, in DMEM/F12 medium containing 10% FCS (foetal calf serum) and in each case split 1:10 after 2–3 days. The test cultures are seeded in 384-well plates at the rate of from 1 000 to 3 000 cells per well and grown at 37° C. for approx. 48 hours. The medium is then replaced with a physiological sodium chloride solution (130 mM sodium chloride, 5 mM potassium chloride, 2 mM calcium chloride, 20 mM HEPES, 1 mM magnesium chloride 6H2O, 5 mM NaHCO3, pH 7.4). The substances, which are dissolved in DMSO, are diluted 1:10 three times with this physiological sodium chloride solution and pipetted into the test cultures (maximum final concentration of DMSO in the test mixture: 0.5%). In this way, final substance concentrations of, for example, from 5 μM to 5 nM are obtained. 10 minutes later, forskolin is added to the A1 cells and all the cultures are subsequently incubated at 37° C. for four hours. After that, 35 μl of a solution which is composed of 50% lysis reagent (30 mM disodium hydrogenphosphate, 10% glycerol, 3% TritonX100, 25 mM TrisHCl, 2 mM dithiothreitol (DTT), pH 7.8) and 50% luciferase substrate solution (2.5 mM ATP, 0.5 mM luciferin, 0.1 mM coenzyme A, 10 mM tricine, 1.35 mM magnesium sulphate, 15 mM DTT, pH 7.8) are added to the test cultures, the plates are shaken for approx. 1 minute and the luciferase activity is measured using a camera system.
(§4) The table gives the % values of the corresponding reference stimulus. The measured values for the A2a and A2b receptors are values in per cent of the maximum stimulation achieved by NECA; the measured values for the A1 receptor are values in per cent following direct prestimulation of the adenylate cyclase with 1 μmolar forskolin (corresponds to the 100% value).

[3] = test system: heart; experiment: Cardiovascular effect: heart rate of isolated rat heart in Langerdorff apparatus; conditions: isolated perfused rat heart
Method: After the thorax has been opened, the heart is rapidly removed from anaesthetized rats and introduced into a conventional Langerdorff apparatus. The coronary arteries are perfused at constant volume (10 ml/min), and the resulting perfusion pressure is recorded by way of an appropriate pressure sensor. In this set-up, a decrease in the perfusion pressure corresponds to a relaxation of the coronary arteries. At the same time, the pressure which the heart develops during each contraction is measured by way of a balloon, which has been introduced into the left ventricle, and a second pressure sensor. The frequency of the heart, which is beating in isolation, is calculated from the number of contractions per time unit.
In this experimental set-up, the following values were obtained for the reduction in heart rate (the stated percentage refers to the reduction of the heart rate in per cent at the concentration in question): […]

[4] = Pharmacokinetic investigation, oral bioavailability in rats; format: in vivo; conditions: plasma, Rat, at 3 mg/kg p.o., read-out: Bioavailability following oral administration
Method: as §1

[5] = Pharmacokinetic investigation, oral bioavailability in dogs; format: in vivo; conditions: plasma, Dog, read-out: Bioavailability following oral administration
Method: as §1

[6] = biological target: T2, adenosine A2a receptor (Homo sapiens, UniProt P29274); experiment: Adenosine agonism indirectly by gene expression (luciferase, cAMP-dependent promoter) in transfected CHO cells, A2a; format: cell-based; conditions: read-out: Stimulation of adenosine A2a receptor (% of the maximum stimulation achieved by NECA)
T2 construct: expressed in transfected cells; host or cells: CHO (Chinese Hamster Ovary)
Text: as §2, §3, §4

[7] = biological target: T3, adenosine A1 receptor (Homo sapiens, UniProt P30542); experiment: Adenosine agonism indirectly by gene expression (luciferase, cAMP-dependent promoter) in transfected CHO cells, A1; format: cell-based; conditions: 1 μmolar forskolin = 100%, agonists give less than 100%
T3 construct: expressed in transfected cells; host or cells: CHO (Chinese Hamster Ovary)
T3 sequence (P30542 1-326): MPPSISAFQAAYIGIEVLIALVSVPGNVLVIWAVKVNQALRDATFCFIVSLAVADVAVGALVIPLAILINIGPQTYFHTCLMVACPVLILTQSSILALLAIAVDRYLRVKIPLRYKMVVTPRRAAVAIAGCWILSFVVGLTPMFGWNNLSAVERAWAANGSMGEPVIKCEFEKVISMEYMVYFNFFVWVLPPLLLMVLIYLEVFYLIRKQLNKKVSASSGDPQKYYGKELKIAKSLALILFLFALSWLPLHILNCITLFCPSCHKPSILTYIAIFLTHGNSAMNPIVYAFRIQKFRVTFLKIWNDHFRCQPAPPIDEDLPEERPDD
Text: as §2, §3, §4

[8] = at a concentration of 10^−6 g/ml
[9] = at a concentration of 10^−7 g/ml

T2 sequence (P29274 whole entry): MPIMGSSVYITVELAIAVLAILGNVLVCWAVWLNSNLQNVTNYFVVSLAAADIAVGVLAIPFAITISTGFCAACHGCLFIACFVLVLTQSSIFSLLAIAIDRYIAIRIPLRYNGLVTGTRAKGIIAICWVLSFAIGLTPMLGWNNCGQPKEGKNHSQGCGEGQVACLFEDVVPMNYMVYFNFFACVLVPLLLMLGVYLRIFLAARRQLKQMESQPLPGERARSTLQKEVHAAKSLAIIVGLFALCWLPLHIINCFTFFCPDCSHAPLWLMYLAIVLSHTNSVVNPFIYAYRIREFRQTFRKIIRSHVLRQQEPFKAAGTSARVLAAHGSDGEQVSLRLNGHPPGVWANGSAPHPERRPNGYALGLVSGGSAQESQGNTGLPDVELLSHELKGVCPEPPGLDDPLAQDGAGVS

What does the source list for `COCCOc1ccc(-c2c(C#N)c(N)nc(SCc3cccnc3)c2C#N)cc1` [Example 1, 2-Amino-4-[4-(2-methoxyethoxy)phenyl]-6-[(3-pyridinylmethyl)sulphanyl]pyridine-3,5-dicarbonitrile]?
bioavailability ([1]; at 1 mg/kg p.o.): 31.5%; Emax ([2]; 0.3 nmol): 2%; Emax ([2]; 1 nmol): 6%; Emax ([2]; 10 nmol): 8%; Reduction of the heart rate in percent [3, 8]: 17.5%; Reduction of the heart rate in percent [3, 9]: 15.0%; bioavailability [4]: 5%; bioavailability ([5]; at 3 mg/kg p.o.): 32.6%; Emax ([6]; 0.3 nmol): -1%; Emax ([6]; 1 nmol): 2%; Emax ([6]; 10 nmol): -2%; Stimulation of adenosine A1 receptor (luciferase activity in % of forskolin prestimulation) ([7]; 0.3 nmol): 56%; Stimulation of adenosine A1 receptor (luciferase activity in % of forskolin prestimulation) ([7]; 1 nmol): 11%; Stimulation of adenosine A1 receptor (luciferase activity in % of forskolin prestimulation) ([7]; 10 nmol): 4%

For `N#Cc1c(N)nc(SCc2csc(-c3ccc(Cl)cc3)n2)c(C#N)c1-c1ccc(OCCO)cc1` [Example 6, 2-Amino-6-({[2-(4-chlorophenyl)-1,3-thiazol-4-yl]methyl}sulphanyl)-4-[4-(2-hydroxyethoxy)phenyl]pyridine-3,5-dicarbonitrile], which bioavailability ([1]; at 3 mg/kg p.o.) is on record?
Its bioavailability is 41.3%.

And the Emax ([2]; 0.3 nmol)?
The Emax was 0%.

What about the Emax ([2]; 1 nmol) of the same molecule?
Its Emax is 3%.

What about the Emax ([2]; 10 nmol) of the same molecule?
The Emax was 29%.

And the “Reduction of the heart rate in percent” value [3, 8]?
The value was 20.0%.

What about the “Reduction of the heart rate in percent” value [3, 9] of the same molecule?
The value was 15.5%.

What about the bioavailability [4] of the same molecule?
The bioavailability was 42.3%.

And the bioavailability ([5]; at 1 mg/kg p.o.)?
Its bioavailability is 28.5%.

What about the Emax ([6]; 0.3 nmol) of the same molecule?
Its Emax is 0%.

And the Emax ([6]; 1 nmol)?
The Emax was 4%.

And the Emax ([6]; 10 nmol)?
Its Emax is 2%.

What about the “Stimulation of adenosine A1 receptor (luciferase activity in % of forskolin prestimulation)” value ([7]; 0.3 nmol) of the same molecule?
Its value is 45%.

And the “Stimulation of adenosine A1 receptor (luciferase activity in % of forskolin prestimulation)” value ([7]; 1 nmol)?
The value was 25%.

What about the “Stimulation of adenosine A1 receptor (luciferase activity in % of forskolin prestimulation)” value ([7]; 10 nmol) of the same molecule?
Its value is 7%.
